Test results as given in US12122770B1, “2-(benzo[d]oxazol-2-yl)-n'-(nicotinoyloxy)acetimidamide as an antimicrobial compound” (KING FAISAL UNIVERSITY, priority 2023, dated 2024).

What was measured:
Bacillus Cereus = assay: Agar plate disc-diffusion, antibacterial activity (inhibition zone); assay type: cell-based; settings: Gram positive, DMSO zone subtracted; for inhibition zone, Bacillus Cereus, A: A = concentration of comp. = 10,000 μL; for inhibition zone, Bacillus Cereus, B: B = concentration of comp. = 30,000 μL; for inhibition zone, Bacillus Cereus, C: C = concentration of comp. = 50,000 μL
Experimental: (§1) The agar plate disc-diffusion method was applied. […] The discs were then placed onto the surface of agar plates (nutrient agar for bacteria and Sabouraud's dextrose agar for fungi) seeded with the test organism. Each plate contained 15 mL of the agar medium, previously seeded with 0.2 mL of the broth culture of each organism pregrown for 18 hours. The plates were incubated at 37° C. for 48 hours, and 72 hours for fungi. The inhibition zones was measured in mm. Discs impregnated with DMSO were used as a control, and its inhibition zone was subtracted from the tested compound actual inhibition zone.

Escherichia coli = assay: as above; assay type: cell-based; settings: Gram negative, DMSO zone subtracted; for inhibition zone, Escherichia coli, A: A = concentration of comp. = 10,000 μL; for inhibition zone, Escherichia coli, B: B = concentration of comp. = 30,000 μL; for inhibition zone, Escherichia coli, C: C = concentration of comp. = 50,000 μL
Experimental: as §1

Pseudomonas aeruginosa = assay: as above; assay type: cell-based; settings: Gram negative, DMSO zone subtracted; for inhibition zone, Pseudomonas aeruginosa, A: A = concentration of comp. = 10,000 μL; for inhibition zone, Pseudomonas aeruginosa, B: B = concentration of comp. = 30,000 μL; for inhibition zone, Pseudomonas aeruginosa, C: C = concentration of comp. = 50,000 μL
Experimental: as §1

Staphylococcus aureus = assay: as above; assay type: cell-based; settings: Gram positive, DMSO zone subtracted; for inhibition zone, Staphylococcus aureus, A: A = concentration of comp. = 10,000 μL; for inhibition zone, Staphylococcus aureus, B: B = concentration of comp. = 30,000 μL; for inhibition zone, Staphylococcus aureus, C: C = concentration of comp. = 50,000 μL
Experimental: as §1

Aspergillus flavus = assay: Agar plate disc-diffusion, antifungal activity (inhibition zone); assay type: cell-based; settings: fungal, 72 hours, DMSO zone subtracted; for inhibition zone, Aspergillus flavus, A: A = concentration of comp. = 10,000 μL; for inhibition zone, Aspergillus flavus, B: B = concentration of comp. = 30,000 μL; for inhibition zone, Aspergillus flavus, C: C = concentration of comp. = 50,000 μL
Experimental: as §1

[1] = test system: Chrysosporium keratinophilum; assay: as above; assay type: cell-based; settings: fungal, 72 hours, DMSO zone subtracted; for inhibition zone, Chrysosporium keratinophilum, A: A = concentration of comp. = 10,000 μL; for inhibition zone, Chrysosporium keratinophilum, B: B = concentration of comp. = 30,000 μL; for inhibition zone, Chrysosporium keratinophilum, C: C = concentration of comp. = 50,000 μL
Experimental: as §1

| SMILES | inhibition zone, Bacillus Cereus, A (Bacillus Cereus) [mm] | inhibition zone, Bacillus Cereus, B (Bacillus Cereus) [mm] | inhibition zone, Bacillus Cereus, C (Bacillus Cereus) [mm] | inhibition zone, Escherichia coli, A (Escherichia coli) [mm] | inhibition zone, Escherichia coli, B (Escherichia coli) [mm] | inhibition zone, Escherichia coli, C (Escherichia coli) [mm] | inhibition zone, Pseudomonas aeruginosa, A (Pseudomonas aeruginosa) [mm] | inhibition zone, Pseudomonas aeruginosa, B (Pseudomonas aeruginosa) [mm] | inhibition zone, Pseudomonas aeruginosa, C (Pseudomonas aeruginosa) [mm] | inhibition zone, Staphylococcus aureus, A (Staphylococcus aureus) [mm] | inhibition zone, Staphylococcus aureus, B (Staphylococcus aureus) [mm] | inhibition zone, Staphylococcus aureus, C (Staphylococcus aureus) [mm] | inhibition zone, Aspergillus flavus, A (Aspergillus flavus) [mm] | inhibition zone, Aspergillus flavus, B (Aspergillus flavus) [mm] | inhibition zone, Aspergillus flavus, C (Aspergillus flavus) [mm] | inhibition zone, Chrysosporium keratinophilum, A [1] [mm] | inhibition zone, Chrysosporium keratinophilum, B [1] [mm] | inhibition zone, Chrysosporium keratinophilum, C [1] [mm] | melting point [°C] |
| --- | --- | --- | --- | --- | --- | --- | --- | --- | --- | --- | --- | --- | --- | --- | --- | --- | --- | --- | --- |
| O=C(O)c1cn(C2CC2)c2cc(N3CCNCC3)c(F)cc2c1=O [Cip., ciprofloxacin, reference compound] | 29 | 31 | 42 | 30 | 39 | 60 | 29 | 30 | 53 | 43 | 44 | 53 | 28 | 31 | 43 | 30 | 33 | 55 |  |
| N/C(Cc1nc2ccccc2o1)=N\OC(=O)c1cccnc1 [compound 3, 2-(benzo[d]oxazol-2-yl)-N′-(nicotinoyloxy)acetimidamide] | 26 | 29 | 37 | 26 | 33 | 47 | 23 | 25 | 40 | 28 | 31 | 40 | 21 | 24 | 32 | 26 | 29 | 48 | 155 to 156 |
